The values that follow come from publication PMC11756387, “Improving the solubility of pseudo-hydrophobic chemicals through co-crystal formulation” (PNAS Nexus, 2025).

The target of one data set is AD tau (Homo sapiens, UniProt P10636). Format: cell-based.
Data set [1] can be described thus: in vitro. The note with it: human, microsomes.
Data set [2] is described as follows: in vitro. The note with it: male, mouse, microsomes.
For data set [3] the following is noted: buffer.
Data set [4] is described as follows: physchem. The note with it: water, thermodynamic from solid.
A short description of data set [5]: physchem. The note with it: pH 7.4.
Data set [6] in a line: Kinetic solubility in simulated intestinal fluid (SIF). The note with it: pH 6.8.

≈ marks a conversion by molar mass, not a printed value.

Chain of AD tau (P10636 623-695 limits assumed): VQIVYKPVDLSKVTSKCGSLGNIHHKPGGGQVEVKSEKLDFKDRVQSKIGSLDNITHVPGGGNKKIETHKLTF

As for `[Ca+2].[OH-].[OH-]` [Ca(OH)2, calcium hydroxide], the “Inhibitory activity of counterions toward tau seeding” value at AD tau is on record as “neither TEA nor Ca(OH)2 exhibited inhibitory activity”.

One may read the half-life as the time in which the quantity being followed falls by half. For orientation: share remaining means what is left of the initial amount, in per cent. One may read the thermodynamic solubility as solubility found after equilibrating the solid with the medium. A word on the logD: it is lipophilicity at a set pH, counting ionised and neutral species. Low readings indicate a more hydrophilic compound, high ones a more lipophilic compound. In “in vitro [1]”, `O=C1c2c(O)cc(O)cc2O[C@H](c2cc(O)c(O)c(O)c2)[C@H]1O` [DHM, dihydromyricetin] registered a half-life at 1 µM of 3.38 h and a fraction remaining at 1 h, 1 µM of roughly 100%. Further, the half-life at 1 µM in “in vitro [2]” came out at 1.57 h. The “Fraction remaining dissolved in aqueous solution after centrifugation” value in data set [3] is given as “about 20%”. Moreover, the thermodynamic solubility in the data set “physchem [4]” worked out at 0.65 mg/mL (≈ 2030 µM). The same compound displayed a logD at 1 h in “physchem [5]” of 0.63.

The solubility (kinetic) is the concentration staying in solution when a stock, usually in DMSO, is diluted into the medium. As for `O=C(O)Cc1ccccc1Nc1c(Cl)cccc1Cl` [diclofenac], the kinetic solubility at 2 h in data set [6] was roughly 300 µM (≈ 88.8 µg/mL).
